This is an account of results in EP4541363A1, “USE OF THE (+)-ELATOL COMPOUND FOR TREATING OR PREVENTING A NAEGLERIA FOWLERI INFECTION” (Universidad de la Laguna, priority 2022, dated 2023).

Series [1] deals with Naegleria fowleri ATCC® 30808™. The experiment in a line: In vitro activity against Naegleria fowleri, alamarBlue colorimetric assay, strain ATCC 30808. The series is classed as cell-based. The conditions noted are these: for IC50 / ATCC® 30808™ IC50: strain ATCC® 30808™, 48 hours at 37°C, mean ± standard deviation; for ATCC® 30808™ SI: selectivity index, CC50 in J774A.1 versus IC50 in strain ATCC® 30808™. As to the method:
(§1) Two strains of Naegleria fowleri obtained from the American Type Culture Collection (ATCC® 30808™ and ATCC® 30215™) were used (LG Promochem, Barcelona, Spain). Both strains were grown in 2% (w/v) Bacto Casitone (Thermo Fisher Scientific, Madrid, Spain) supplemented with 10% (v/v) fetal bovine serum, 0.3 µg/ml penicillin G sodium salt and 0.5 mg/ml streptomycin sulphate (Sigma-Aldrich, Madrid, Spain) at 37°C.
(§2) All tested compounds were dissolved in dimethyl sulfoxide (DMSO). The in vitro activity of the selected compounds was assessed by a colorimetric assay based on the alamarBlue® reagent. Amoebas were seeded in 96-well plates at a concentration of 2 × 10^5 cells/ml ([…]). Next, serial dilutions (in the same medium as the amoebas) of the compound were prepared and added ([…]) to the wells containing the Naegleria fowleri cells. Lastly, 10% of the total volume of alamarBlue® was added to the wells and incubated under gentle stirring at 37°C for 48 hours. After that time, the emitted fluorescence was read on an EnSpire® Multimode Plate Reader (PerkinElmer, Spain) using a […] (Rizo-Liendo A. et al. "In Vitro Activity of Statins against Naegleria fowleri."; Pathog, vol. 8, no. 3, p. 122 - 2019; doi: 10.3390/ pathogens8030122).
(In general: The colour change of resazurin is a common sign of viable cells or microbes.)

For series [2], the system named is Naegleria fowleri ATCC® 30215™. The experiment in a line: In vitro activity against Naegleria fowleri, alamarBlue colorimetric assay, strain ATCC 30215. The series is classed as cell-based. The conditions noted are these: for IC50: Naegleria fowleri, ATCC30215; for IC50 / ATCC® 30215™ IC50: Table 2, strain ATCC® 30215™, 48 hours at 37°C, mean ± standard deviation; for ATCC® 30215™ SI: selectivity index, CC50 in J774A.1 versus IC50 in strain ATCC® 30215™. As to the method: as §1, §2

Series [3] in a line: Cytotoxicity assay based on alamarBlue reagent. Type of series: cell-based. The conditions noted are these: mouse, cytotoxic concentration 50 against murine macrophages J774A.1, 24 hours at 37°C, 5% CO2, mean ± standard deviation. As to the method: (§3) The cells were cultured in DMEM (Dulbecco's Modified Eagle's Medium) supplemented with 10% fetal bovine serum and 10 µg/ml gentamicin (Sigma-Aldrich, Madrid, Spain). The culture was maintained at 37°C in a 5% CO2 atmosphere. To assess cytotoxicity, an assay based on the alamarBlue® reagent was carried out. Briefly, the murine macrophages (2 × 10^5 cells/ml) were incubated with serial dilutions of the test compound that were performed in the same culture medium. Lastly, alamarBlue® was added to each well and kept at 37°C and 5% CO2 for 24 hours.

Series [4] concerns murine macrophages J774A.1. In words: Cytotoxicity assay based on alamarBlue reagent. Type of series: cell-based. The settings on record: cytotoxic concentration 50 against murine macrophages J774A.1; 24 hours at 37°C, 5% CO2; mean ± standard deviation. On the procedure: as §3
The next series has as its system Naegleria fowleri. The conditions noted are these: infected PAM patients; alone or in combination with other medicines; cited from earlier work.
Setting [5] is: Naegleria fowleri, ATCC30808, Table 2, read-out: ATCC® 30808™ IC50.

≈ marks a conversion by molar mass, not a printed value. Read-outs that look alike come from different tables or passages of the source.

Broadly, the IC50 is the concentration that gives 50% inhibition. A word on the CC50: it is the concentration at which the toxic effect on the cells reaches its halfway point. A low value points to harm at low concentration.

As to `C=C1CC(O)C(Br)C(C)(C)C12CCC(C)=C(Cl)C2` (single isomer, unassigned; (+)) [(+)-elatol], the IC50 in series [1] (Naegleria fowleri, ATCC30808, Table 1, read-out: IC50) was found to be 0.36 ± 0.03 µg/mL (≈ 1.08 µM); in series [1] (setting [5]), 0.36 ± 0.03 µg/mL (≈ 1.08 µM); in series [2] it was 0.38 ± 0.06 µg/mL (≈ 1.14 µM). In addition, the “ATCC® 30808™ SI” value in series [1] worked out at 57.02. Also, the “ATCC® 30215™ SI” value in series [2] came out at 54.03. In series [3] (j774a.1 macrophages), this compound yielded a CC50 at 24 h of 20.5 ± 4.33 µg/mL (≈ 61.5 µM).

In the case of `C=C1CC(O)C(Br)C(C)(C)C12CC=C(C)CC2` (single isomer, unassigned; (-)) [(-)-10-bromochamigra-3,7(14)-dien-9-ol], the IC50 in series [1] (Table 1) is over 25 µg/mL.

`C=C1C[C@H](O)[C@H](Br)C(C)(C)C12CCC(C)(Cl)C(Br)C2` (single isomer, unassigned; (-)) [(-)-rogiolol] yielded a half-maximal inhibitory concentration (IC50) in series [1] (Table 1) of 8.18 ± 0.92 µg/mL (≈ 19.7 µM). Besides, in series [1] (Table 2), the “ATCC® 30808™ IC50” value came to 8.18 ± 0.92 µg/mL. The “ATCC® 30808™ SI” value in series [1] came out at 5.57. The same compound registered a CC50 in series [4] of 45.56 ± 7.80 µg/mL (≈ 110 µM).

`C=C1C[C@H](O)CC(C)(C)[C@@]12CCC(C)=C(Cl)C2` [(+)-debromoelatol] came in with an IC50 in series [1] (Table 1) of over 25 µg/mL.

`C=C1CC[C@@H](Br)C(C)(C)[C@@]12CC[C@@](C)(Br)[C@H](Cl)C2` [(+)-obtusane]: in series [1] (Table 1), the half-maximal inhibitory concentration (IC50) was over 25 µg/mL.

As to `C=C1C[C@@H](O)[C@@H](Br)C(C)(C)[C@]12CC[C@](C)(Br)[C@@H](Cl)C2` [(+)-obtusol], in series [1] (Table 1), the IC50 was over 25 µg/mL.

In turn, `C=C1C[C@@H](O)[C@@H](Br)C(C)(C)[C@]12CC[C@](C)(Cl)[C@@H](Br)C2` [(-)-cartilagineol] registered an IC50 in series [1] (Table 1) of over 25 µg/mL.

With `C=C1C[C@@H](O)[C@@H](Br)C(C)(C)[C@]12CC[C@@](C)(O)[C@@H](Cl)C2` [(-)-dendroidiol], the IC50 in series [1] (Table 1) is over 25 µg/mL.

With `C=C1C[C@H](O)[C@H](Br)C(C)(C)[C@@]12CCC(C)=C(Cl)C2` [(-)-elatol], the IC50 in series [1] (Table 1) is 12.27 ± 2.68 µg/mL (≈ 36.8 µM). Further, the “ATCC® 30808™ IC50” value in series [1] (Table 2) turned out to be 12.27 ± 2.68 µg/mL. For the same compound, in series [1], the “ATCC® 30808™ SI” value came out at 4.39. Further, the 50% cytotoxic concentration (CC50) in series [4] worked out at 53.91 ± 4.28 µg/mL (≈ 162 µM).

For `C[C@@H]1[C@H](O)[C@@H](C)/C=C/C=C/C=C/C=C/C=C/C=C/C=C/[C@H](O[C@@H]2O[C@H](C)[C@@H](O)[C@H](N)[C@@H]2O)C[C@@H]2O[C@](O)(C[C@@H](O)C[C@@H](O)[C@H](O)CC[C@@H](O)C[C@@H](O)CC(=O)O[C@H]1C)C[C@H](O)[C@H]2C(=O)O` [Amphotericin B], the IC50 worked out at 0.11 ± 0.03 µg/mL (≈ 0.119 µM) in series [1] (setting [5]) and 0.15 ± 0.02 µg/mL (≈ 0.162 µM) in series [2]. Also, the “ATCC® 30808™ SI” value in series [1] is over 1818.18. Moreover, the “ATCC® 30215™ SI” value in series [2] is recorded as over 1333.33. Moreover, the CC50 at 24 h in series [3] (j774a.1 macrophages) was over 200 µg/mL. Also, the “patients recover at least partially after its administration” value in the series with Naegleria fowleri is listed as 8%.

`CCCCCCCCCCCCCCCCOP(=O)([O-])OCC[N+](C)(C)C` [Miltefosine]: the IC50 in series [1] (setting [5]) came to 15.8 ± 1.72 µg/mL (≈ 38.7 µM). The “ATCC® 30808™ SI” value in series [1] is 3.30. For the same compound, in series [2], the midpoint of inhibition, the IC50, lay at 33.2 ± 2.95 µg/mL (≈ 81.6 µM) and the “ATCC® 30215™ SI” value was 1.56. This compound also returned a CC50 at 24 h in series [3] of 52.1 ± 3.61 µg/mL (≈ 128 µM).

The compound “(-)-3,10-dibromo-4-chloro-alpha-chamigrene” registered an IC50 in series [1] (Table 1) of over 25 µg/mL.

For the compound debromolauriterol, the “ATCC® 30808™ IC50” value in series [1] (Table 2) was determined as 5.54 ± 1.19 µg/mL. Besides, the “ATCC® 30808™ SI” value in series [1] is recorded as 2.74. In series [2], the “ATCC® 30215™ IC50” value came out at 14.13 ± 2.37 µg/mL and the “ATCC® 30215™ SI” value is given as 1.07. The CC50 in series [4] was found to be 15.17 ± 2.80 µg/mL.

As to lauriterol, the “ATCC® 30808™ IC50” value in series [1] (Table 2) worked out at 3.96 ± 0.76 µg/mL. Further, the “ATCC® 30808™ SI” value in series [1] is 5.97. In series [2], the “ATCC® 30215™ IC50” value was determined as 3.45 ± 0.63 µg/mL and the “ATCC® 30215™ SI” value is listed as 6.85. Further, the CC50 in series [4] was determined as 23.65 ± 2.30 µg/mL.
